Assays:
Design in all cases: 14-day clonogenic growth inhibition assay, human cancer cell line panel
Conditions in all cases: 14-day clonogenic assay; inhibitor; read-out: Table S1. IC50 of CCT271850 determined by MTT and clonogenic assays (CA). / All cell lines were tested at least 2 times. / 14-day CA
005B = test system: 005B
Protocol: (§1) To evaluate CCT271850 antiproliferation effects in a large panel of human cancer cell lines, 91 cell lines were treated for 72 h and 14 days at different compound concentrations in growth inhibition assays. The growth inhibition values as measured by IC50 are summarised in Table 2 and Supplementary Table S1. […] Cell lines from colon and head and neck cancers were among the most sensitive.

011A = test system: 011A
Protocol: as §1

011B = test system: 011B
Protocol: as §1

015B = test system: 015B
Protocol: as §1

A2780 = test system: A2780
Protocol: as §1

CAL27 = test system: CAL27
Protocol: as §1

CFPAC-1 = test system: CFPAC-1
Protocol: as §1

CaoV3 = test system: CaoV3
Protocol: as §1

Det562 = test system: Det562
Protocol: as §1

EF021 = test system: EF021
Protocol: as §1

EF027 = test system: EF027
Protocol: as §1

HN3 = test system: HN3
Protocol: as §1

IGROV1 = test system: IGROV1
Protocol: as §1

KGN = test system: KGN
Protocol: as §1

Lon-HN5 = test system: Lon-HN5
Protocol: as §1

Miapaca-2 = test system: Miapaca-2
Protocol: as §1

O13 = test system: O13
Protocol: as §1

OAW28 = test system: OAW28
Protocol: as §1

OAW42 = test system: OAW42
Protocol: as §1

OVCAR3 = test system: OVCAR3
Protocol: as §1

OVCAR4 = test system: OVCAR4
Protocol: as §1

OVCAR5 = test system: OVCAR5
Protocol: as §1

OVCAR8 = test system: OVCAR8
Protocol: as §1

PANC-1 = test system: PANC-1
Protocol: as §1

PATU-8902 = test system: PATU-8902
Protocol: as §1

PATU-8988S = test system: PATU-8988S
Protocol: as §1

PATU-8988T = test system: PATU-8988T
Protocol: as §1

PJ34 = test system: PJ34
Protocol: as §1

PJ41 = test system: PJ41
Protocol: as §1

PT45 = test system: PT45
Protocol: as §1

RMG1 = test system: RMG1
Protocol: as §1

SKOV3 = test system: SKOV3
Protocol: as §1

SMOV2 = test system: SMOV2
Protocol: as §1

SW626 = test system: SW626
Protocol: as §1

Suit-2 = test system: Suit-2
Protocol: as §1

TOV21G = test system: TOV21G
Protocol: as §1

TYK-Nu = test system: TYK-Nu
Protocol: as §1

## COc1cc(-c2cnn(C)c2)ccc1Nc1ncc2ccnc(N[C@@H](C)C(C)(C)C)c2n1 [34h, CCT271850]
005B
  IC50: 0.045 µM
011A
  IC50: 0.02 µM
011B
  IC50: 0.021 µM
015B
  IC50: 0.059 µM
A2780
  IC50: 0.105 µM
CAL27
  IC50: 0.004 µM
CFPAC-1
  IC50: 0.063 µM
CaoV3
  IC50: 0.075 µM
Det562
  IC50: 0.046 µM
EF021
  IC50: 0.072 µM
EF027
  IC50: 0.037 µM
HN3
  IC50: 0.0052 µM
IGROV1
  IC50: 0.048 µM
KGN
  IC50: 0.106 µM
Lon-HN5
  IC50: 0.044 µM
Miapaca-2
  IC50: 0.068 µM
O13
  IC50: 0.021 µM
OAW28
  IC50: 0.061 µM
OAW42
  IC50: 0.057 µM
OVCAR3
  IC50: 0.099 µM
OVCAR4
  IC50: 0.062 µM
OVCAR5
  IC50: 0.082 µM
OVCAR8
  IC50: 0.101 µM
PANC-1
  IC50: 0.074 µM
PATU-8902
  IC50: 0.028 µM
PATU-8988S
  IC50: 0.11 µM
PATU-8988T
  IC50: 0.087 µM
PJ34
  IC50: 0.035 µM
PJ41
  IC50: 0.0008 µM
PT45
  IC50: 0.059 µM
RMG1
  IC50: 0.042 µM
SKOV3
  IC50: 0.058 µM
SMOV2
  IC50: 0.014 µM
SW626
  IC50: 0.032 µM
Suit-2
  IC50: 0.087 µM
TOV21G
  IC50: 0.0078 µM
TYK-Nu
  IC50: 0.073 µM

— paper PMC5418449, “Characterisation of CCT271850, a selective, oral and potent MPS1 inhibitor, used to directly measure in vivo MPS1 inhibition vs therapeutic efficacy” (British Journal of Cancer, 2017)
